Experimental data published in US20070117868A1, “Use of n-arylhydrazine derivatives for combating non-crop pests” (priority 2004, published 2007).

Assays:
Format in all cases: in vivo
Solenopsis invicta [1] = test: Activity via glass contact, fire ant; settings: rate 10 ppm
Procedure: (§1) 1. Activity Against Argentine Ant, Harvester Ant, Acrobat Ant, Carpenter Ant, Fire Ant, House Fly, Stable Fly, Flesh Fly, Yellowfever Mosquito, House Mosquito, Malaria Mosquito, German Cockroach, Cat Flea, and Brown Dog Tick Via Glass Contact
(§2) Glass vials (20 ml scintillation vials) were treated with 0.5 ml of a solution of active ingredient in acetone. Each vial was rolled uncapped for ca. 10 minutes to allow the a.i. to completely coat the vial and to allow for full drying of the acetone. Insects or ticks were placed into each vial.

Camponotus floridanus [2] = test: Activity via soil contact, carpenter ant; settings: rate 0.01 w %
Procedure: (§3) 2. Activity Against Argentine Ant, Acrobat Ant, Carpenter Ant, Fire Ant, and Eastern Subterranean Termite Via Soil Contact
(§4) For ants, tests were conducted in Petri dishes. A thin layer of 1% agar in water was dispensed into the dishes and Florida sandy soil was spread over the agar (5 g for the small dishes and 11 g for the larger dishes). The active ingredient was dissolved in acetone and dispensed over the sand. Dishes were vented to evaporate the acetone, infested with ants, and covered. A 20% honey water solution was placed in each dish. The dishes were maintained at 22° C. and observed for mortality at various time intervals.

Crematogaster spp. = test: Activity via soil contact, acrobat ant; settings: rate 0.01 w %
Procedure: as §3, §4

Aedes aegypti [3] = test: Activity via glass contact, yellowfever mosquito; settings: rate 10 ppm
Procedure: as §1, §2

Ctenocephalides felis = test: Activity via glass contact, cat flea; settings: rate 100 ppm
Procedure: as §1, §2

Camponotus floridanus [4] = test: Activity via glass contact, carpenter ant; settings: rate 10 ppm
Procedure: as §1, §2

Coptotermes formosanus = test: Activity via bait (treated filter paper), Formosan termite; settings: rate 0.1 w %
Procedure: (§5) 3. Activity Against Argentine Ant, Acrobat Ant, Carpenter Ant, Fire Ant, House Fly, Eastern Subterranean Termite, Formosan Subterranean Termite, and German Cockroach Via Bait
For termites, active ingredient in acetone was applied to filter papers. % a.i. were calculated on basis of the weight of the filter paper. Acetone only was applied for untreated controls. Treated papers were vented to evaporate the acetone, moistened with […], and placed Petri dishes with sand. Water was added during the test as needed. Bioassays were conducted with one treated filter and ca. 30 termite workers per test dish. Test dishes were maintained at 25° C. and appr. 85% relative humidity and observed daily for mortality (dead or moribund insects) or intoxication. Dead or moribund insects were removed daily.

Anopheles albimanus [5] = test: Activity via water treatment, malaria mosquito larvae; settings: rate 1.0 ppm
Procedure: (§6) 4. Activity Against Yellowfever Mosquito, Southern House Mosquito, and Malaria Mosquito Larvae Via Water Treatment
(§7) Well plates were used as test arenas. The active ingredient was dissolved in acetone and diluted with water to obtain the concentrations needed. The final solutions containing appr. 1% acetone were placed into each well. Approximately 10 mosquito larvae (4th-instars) in 1 ml water were added to each well. Larvae were fed one drop of liver powder each day. The dishes were covered and maintained at 22° C. Mortality was recorded daily and dead larvae and live or dead pupae were removed daily. At the end of the test remaining live larvae were recorded and percent mortality was calculated.

Musca domestica [6] = test: Activity via glass contact, house fly; settings: rate 10 ppm
Procedure: as §1, §2

Anopheles albimanus [7] = test: Activity via glass contact, malaria mosquito; settings: rate 1 ppm
Procedure: as §1, §2

Culex quinquefasciatus [8] = test: Activity via glass contact, house mosquito; settings: rate 0.5 ppm
Procedure: as §1, §2

Sarcophaga sp. = test: Activity via glass contact, flesh fly; settings: rate 10 ppm
Procedure: as §1, §2

Aedes aegypti [9] = test: Activity via water treatment, yellowfever mosquito larvae; settings: rate 10 ppm
Procedure: as §6, §7

Culex quinquefasciatus [10] = test: Activity via water treatment, house mosquito larvae; settings: rate 10 ppm
Procedure: as §6, §7

Solenopsis invicta [11] = test: Activity via bait (corn grit), fire ant; settings: rate 0.7 w %
Procedure: as §5
For the fire ants, corn grit was used as a bait matrix. […] Petri dishes were supplied with a water source. Fire ant adults were placed into each dish. The next day, 250 mg of bait in bait containers was placed into the dishes.

Solenopsis invicta [12] = test: Activity via soil contact, fire ant; settings: rate 0.01 w %
Procedure: as §3, §4

Musca domestica [13] = test: Activity via bait, house fly; settings: rate 0.1 w %
Procedure: as §5
For house flies. Bait tests were conducted with adults aged 2-5 days post-emergence. Active ingredient in acetone was applied to a bait matrix consisting of a 1:1 mixture of powdered milk and sugar which was then allowed to dry. Assays were conducted in jars with 250 mg of bait in a pan placed in the bottom of each jar. House flies were placed into the bait jars which were covered. The test jars were held at 22° C.

Stomoxys calcitrans = test: Activity via glass contact, stable fly; settings: rate 10 ppm
Procedure: as §1, §2

Measured: Days or Hours to achieve 100% mortality

CCN/C(=N\Nc1c(Cl)cc(C(F)(F)F)cc1Cl)C1(C)CC1(Cl)Cl (stereo not drawn) [Compound I-2, N-Ethyl-2,2-dichloro-1-methylcyclopropanecarboxamide-2-(2,6-dichloro-α,α,α-tri-fluoro-p-tolyl)hydrazone]
3 h: Musca domestica [13]
2 days: Crematogaster spp. | Ctenocephalides felis | Aedes aegypti [9]
5 days: Coptotermes formosanus
3 days: Solenopsis invicta [11]
1 days: Camponotus floridanus [2] | Camponotus floridanus [4] | Anopheles albimanus [5] | Anopheles albimanus [7] | Culex quinquefasciatus [10] | Solenopsis invicta [12]
4 h: all other assays above

CCN/C(=N\Nc1c(Cl)cc(C(F)(F)F)cc1Cl)C(C)(C)C [Compound I-1, N-ethyl-2,2-dimethylpropionamide-2-(2,6-dichloro-α,α,α-trifluoro-p-tolyl)-hydrazone]
3 h: Musca domestica [13]
3 days: Solenopsis invicta [11]
1 days: Camponotus floridanus [2] | Camponotus floridanus [4] | Anopheles albimanus [5] | Anopheles albimanus [7] | Culex quinquefasciatus [10] | Solenopsis invicta [12]
5 days: Coptotermes formosanus
2 days: Crematogaster spp. | Ctenocephalides felis | Aedes aegypti [9]
4 h: all other assays above
